From patent US20100305174A1, “Novel Heterocyclic Derivatives” (ORCHID RESEARCH LABORATORIES LIMITED, priority 2005, published 2010)
Like-named read-outs stand apart in the source and are kept apart here.

Legend:
DPP IV = target: T1, DPP IV (Homo sapiens, UniProt P27487); experiment: DPP IV assay (human plasma as source, H-gly-pro AMC substrate); assay type: biochemical; settings: compared to vehicle control
T1 construct: using human plasma as a source of DPP IV; from tissue; host or cells: human plasma
Protocol: DPP IV assay is carried by using human plasma as a source of DPP IV. The compounds were incubated at a concentration of 1 and 10 μM in assay buffer containing DPP IV enzyme. The compounds were incubated for 1 hr and then the substrate H-gly-pro AMC was added and further incubated for 20 min and then the reaction was stopped on addition of 25% glacial acetic acid. The plates were read in a spectrofluorimeter to get RFU on setting excitation wavelength of 360 nm and emission wavelength of 460 nm. Percentage inhibition is calculated as compared to vehicle control.

TNF-α = TNF-α inhibition in LPS-challenged human PBMC; assay type: cell-based; settings: for inhibition at 1 µM / inhibition at 10 µM: Homo sapiens, PBMC, read-out: % Inhibition TNF alpha; for inhibition at 1 µM / inhibition at 10 µM / % Inhibition TNF alpha: LPS 100 ng/mL, 20 hours
Protocol: (§1) Human PBMC cells were cultured and incubated with compounds listed in table-4 at 1 and 10 μM concentrations. Cells (1×10^6/mL) were challenged with lipopolysaccharides (LPS) at a concentration of (100 ng/mL) for 20 hours. Cell supernatant was analyzed for the presence of TNF-α, IL-1β and IL-6 cytokines by antibody directed enzyme-linked immunoassay.

IL-1β = IL-1β inhibition in LPS-challenged human PBMC; assay type: cell-based; settings: for inhibition at 1 µM / inhibition at 10 µM: Homo sapiens, PBMC, read-out: % Inhibition IL1beta
Protocol: as §1

IL-6 = IL-6 inhibition in LPS-challenged human PBMC; assay type: cell-based; settings: for inhibition at 10 µM / inhibition at 1 µM: Homo sapiens, PBMC, LPS 100 ng/mL, 20 hours
Protocol: as §1

3T3-L1 cells = experiment: Glucose uptake assay using 3T3-L1 cells; assay type: cell-based; settings: 1 μM, 72 hours, differentiated 3T3-L1 adipocytes, 14C deoxyglucose uptake; relative to BLX-1002
Protocol: 3T3-L1 cells were differentiated by the addition of differentiation cocktail (72 μg/ml insulin, 0.5 mM IBMX, 400 ng/ml Dexamethasone) for 4 days and later fed with media without differentation cocktail for 7-8 days. After differentiation the cells were incubated with the either reference compound BLX-1002 or compounds listed in the table 1 at 1 μM concentrations for 72 hours and carried out the glucose uptake assay for 10 min by the addition of KRP buffer supplemented with 2.5 μCi/ml ^14C deoxy glucose. Stimulation Index is defined as the amount of ^14C Deoxyglucose uptake induced by 1 μM of BLX-1002 incubated for 72 hrs in an assay condition as per protocol described above with differentiated 3T3-L1 adipocytes. Values of compounds mentioned in table-1 are with reference to stimulation index of reference compound BLX-1002.

[1] = system: streptozotocin induced diabetic mice; experiment: Antidiabetic activity in streptozotocin induced diabetic mice; assay type: in vivo, Swiss albino mice; design: key to % Reduction Cholesterol / % Reduction Triglycerides / % Reduction Glucose: NR=No Reduction; settings: 50 mg/kg oral, 7 days, plasma, compared to control group; for inhibition in vivo at 50 mg/kg: Mus musculus, 168 h
Protocol: Swiss albino mice of either sex were used in the study at the age of 10 weeks. Diabetes was induced in animals by injecting streptozotocin by i.p. route at a dose of 200 mg/kg body weight. 48 hours after streptozotocin administration, the animals were kept for fasting for 6 hours and blood was collected and plasma separated and glucose was estimated. Animals showing greater than 200 mg/dl glucose levels were considered as diabetic and these animals were randomly distributed into various groups. The compounds listed in the table 3 were administered at a dose of 50 mg/kg body weight by oral route for 7 days. Later animals were fasted for 6 hours and blood was collected and plasma separated. Biochemical estimations like glucose, cholesterol and triglycerides were carried out using the plasma. The effect of compounds mentioned in the table was expressed in terms of percentage reduction in biochemical values as compared to control group.

[2] = at tested concentrations, statement in words
[3] = read-out: % Reduction Triglycerides

T1 sequence (P27487 39-766 limits assumed): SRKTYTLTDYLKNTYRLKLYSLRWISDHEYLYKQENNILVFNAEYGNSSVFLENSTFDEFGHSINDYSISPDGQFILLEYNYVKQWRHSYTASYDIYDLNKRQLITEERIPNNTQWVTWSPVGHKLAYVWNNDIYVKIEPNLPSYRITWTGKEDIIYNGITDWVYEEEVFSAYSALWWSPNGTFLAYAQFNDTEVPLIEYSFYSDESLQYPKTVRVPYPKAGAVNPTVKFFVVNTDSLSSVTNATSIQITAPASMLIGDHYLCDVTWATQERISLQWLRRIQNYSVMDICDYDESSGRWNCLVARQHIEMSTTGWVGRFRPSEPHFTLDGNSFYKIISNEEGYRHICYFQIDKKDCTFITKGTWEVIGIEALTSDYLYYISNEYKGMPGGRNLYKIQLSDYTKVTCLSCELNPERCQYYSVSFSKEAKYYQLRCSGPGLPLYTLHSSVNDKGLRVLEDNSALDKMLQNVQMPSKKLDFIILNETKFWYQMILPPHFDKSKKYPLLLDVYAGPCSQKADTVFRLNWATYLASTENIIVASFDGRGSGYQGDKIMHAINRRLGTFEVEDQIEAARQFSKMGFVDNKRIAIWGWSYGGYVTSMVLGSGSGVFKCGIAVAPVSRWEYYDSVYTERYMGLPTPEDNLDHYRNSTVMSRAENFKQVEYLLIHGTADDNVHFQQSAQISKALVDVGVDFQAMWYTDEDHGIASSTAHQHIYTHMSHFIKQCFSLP

CN1C(=O)OCC1Cc1ccc(Oc2ccc(CC3C(=O)Nc4ccccc43)cc2C(F)(F)F)cc1 (stereo not shown) [Example 75]
inhibition at 1 µM (DPP IV): 2.44%
inhibition at 10 µM (DPP IV): 7.64%

COc1cc(CC2C(=O)Nc3ccccc32)ccc1Oc1ccc(CC2COC(=O)N2C)cc1 (stereo not shown) [Example 67]
inhibition at 1 µM (TNF-α; 1 μM): 20.9%
inhibition at 10 µM (TNF-α; 10 μM): 34%
inhibition at 1 µM (IL-1β; 1 μM, LPS 100 ng/mL, 20 hours): 12.1%
inhibition at 10 µM (IL-1β; LPS 100 ng/mL, 20 hours): 20.9%
inhibition at 10 µM (IL-6): 2.12%

CCN1C(=O)OCC1Cc1ccc(Oc2ccc(CC3C(=O)Nc4ccccc43)cc2OC)cc1 (stereo not shown) [Example 69]
inhibition at 1 µM (TNF-α; 1 μM): 35.2%
inhibition at 10 µM (TNF-α; 10 μM): 50.6%
inhibition of TNF-α production (TNF-α; [2]): can inhibit the production
inhibition at 1 µM (IL-1β; 1 μM, LPS 100 ng/mL, 20 hours): 33.3%
inhibition at 10 µM (IL-1β; LPS 100 ng/mL, 20 hours): 39.7%
inhibition of IL-1β production (IL-1β; [2]): can inhibit the production
inhibition at 1 µM (IL-6): 2.98%
inhibition at 10 µM (IL-6): 12.4%
inhibition of IL-6 production (IL-6; [2]): can inhibit the production

5-(3-methoxy-4-{4-[(3-methyl-2-oxo-1,3-oxazolidin-4-yl)methyl]phenoxybenzylidene)-1,3-dihydro-2H-indol-2-one [Example 11]
% Inhibition TNF alpha (TNF-α; 1 μM): 18.77%
% Inhibition TNF alpha (TNF-α; 10 μM): 26.07%
Stimulation Index (3T3-L1 cells): 1.12
% Inhibition IL1beta (IL-1β; 1 μM, LPS 100 ng/mL, 20 hours): 17.10%

O=C1NC(Cc2ccc(Oc3ccc(/C=C4/SC(=O)NC4=O)cc3F)cc2)CO1 (stereo not shown) [Example 31, 5-(3-fluoro-4-{4-[(2-oxo-1,3-oxazolidin-4-yl)methyl]phenoxy}benzylidene)-1,3-thiazolidine-2,4-dione]
inhibition at 1 µM (DPP IV): 4.77%
inhibition at 10 µM (DPP IV): 7.25%

CN1C(=O)OCC1Cc1ccc(Oc2ccc(/C=C3/SC(=S)NC3=O)cc2Cl)cc1 (stereo not shown) [Example 40, 4-(4-{2-chloro-4-[(4-oxo-2-thioxo-1,3-thiazolidin-5-ylidene)methyl]phenoxy}benzyl)-3-methyl-1,3-oxazolidin-2-one]
% Reduction Cholesterol [1]: NR
inhibition in vivo at 50 mg/kg ([1]; read-out: % Reduction Glucose): 34.2%
inhibition in vivo at 50 mg/kg [1, 3]: 17.8%

CCN1C(=O)OCC1Cc1ccc(Oc2ccc(/C=C3\C(=O)Nc4ccccc43)cc2F)cc1 (stereo not shown) [Example 12]
inhibition at 1 µM (TNF-α; 1 μM): 13.6%
inhibition at 10 µM (TNF-α; 10 μM): 28.1%
inhibition at 1 µM (IL-6): 2.67%
inhibition at 10 µM (IL-6): 1.65%

CCN1C(=O)OCC1Cc1ccc(Oc2ccc(CC3SC(=O)NC3=O)cc2)cc1 (stereo not shown) [Example 62, 5-(4-{4-[(3-ethyl-2-oxo-1,3-oxazolidin-4-yl)methyl]phenoxy}benzyl)-1,3-thiazolidine-2,4-dione]
% Reduction Cholesterol [1]: NR
inhibition in vivo at 50 mg/kg ([1]; read-out: % Reduction Glucose): 36.2%
inhibition in vivo at 50 mg/kg [1, 3]: 24.7%

CN1C(=O)OCC1Cc1ccc(Oc2ccc(/C=C3\C(=O)Nc4ccccc43)c(Cl)c2)cc1 (stereo not shown) [Example 16]
inhibition at 1 µM (TNF-α; 1 μM): 6.6%

CCN1C(=O)OCC1Cc1ccc(Oc2ccc(/C=C3/SC(=O)NC3=O)cc2)cc1 (stereo not shown) [Example 3, 5-(4-{4-[(3-ethyl-2-oxo-1,3-oxazolidin-4-yl)methyl]phenoxy}benzylidene)-1,3-thiazolidine-2,4-dione]
% Reduction Cholesterol [1]: NR
% Reduction Glucose [1]: NR
inhibition in vivo at 50 mg/kg [1, 3]: 3.8%

CN1C(=O)OCC1Cc1ccc(Oc2ccc(/C=C3\C(=O)Nc4ccccc43)cc2)cc1 (stereo not shown) [Example 4]
inhibition at 1 µM (TNF-α; 1 μM): 8.77%
inhibition at 10 µM (TNF-α; 10 μM): 2.85%
inhibition at 1 µM (IL-1β; 1 μM, LPS 100 ng/mL, 20 hours): 1.55%
inhibition at 10 µM (IL-1β; LPS 100 ng/mL, 20 hours): 10.7%

CN1C(=O)OCC1Cc1ccc(Oc2ccc(CC3SC(=S)N(CC(=O)O)C3=O)cc2C(F)(F)F)cc1 (stereo not shown) [Example 86]
% Reduction Cholesterol [1]: NR
inhibition in vivo at 50 mg/kg ([1]; read-out: % Reduction Glucose): 48.8%
inhibition in vivo at 50 mg/kg [1, 3]: 15.5%

CCN1C(=O)OCC1Cc1ccc(Oc2ccc(/C=C3/SC(=S)NC3=O)cc2C(F)(F)F)cc1 (stereo not shown) [Example 59]
inhibition at 1 µM (DPP IV): -1.26%
inhibition at 10 µM (DPP IV): 12.4%

CN1C(=O)OCC1Cc1ccc(Oc2ccc(CC3SC(=O)NC3=O)cc2C(F)(F)F)cc1 (stereo not shown) [Example 71, 4-{4-[(3-methyl-2-oxo-1,3-oxazolidin-4-yl)methyl]phenoxy)-3-(trifluoromethylbenzyl]-1,3-thiazolidine-2,4-dione]
% Reduction Cholesterol [1]: NR
% Reduction Triglycerides [1]: NR
inhibition in vivo at 50 mg/kg ([1]; read-out: % Reduction Glucose): 49.9%

CCN1C(=O)OCC1Cc1ccc(Oc2ccc(/C=C3\C(=O)Nc4ccccc43)cc2Cl)cc1 (stereo not shown) [Example 10]
inhibition at 1 µM (TNF-α; 1 μM): 20.2%
inhibition at 10 µM (TNF-α; 10 μM): 35%
inhibition at 1 µM (IL-6): 15.5%
inhibition at 10 µM (IL-6): 7.18%

CCN1C(=O)OCC1Cc1ccc(Oc2ccc(CC3C(=O)Nc4ccccc43)cc2F)cc1 (stereo not shown) [Example 66]
inhibition at 1 µM (IL-6): 3.58%

CCN1C(=O)OCC1Cc1ccc(Oc2ccc(/C=C3\C(=O)Nc4ccccc43)cc2C(F)(F)F)cc1 (stereo not shown) [Example 15]
inhibition at 1 µM (DPP IV): 7.07%
inhibition at 10 µM (DPP IV): 9.86%
inhibition at 1 µM (TNF-α; 1 μM): 24.5%
inhibition at 10 µM (TNF-α; 10 μM): 15.9%
inhibition at 1 µM (IL-1β; 1 μM, LPS 100 ng/mL, 20 hours): 1.78%
inhibition at 1 µM (IL-6): 1.16%

CN1C(=O)OCC1Cc1ccc(Oc2ccc(/C=C3/SC(=S)NC3=O)cc2C(F)(F)F)cc1 (stereo not shown) [Example 55]
inhibition at 1 µM (DPP IV): 1.99%
inhibition at 10 µM (DPP IV): 9.92%

CN1C(=O)OCC1Cc1ccc(Oc2ccc(/C=C3/C(=O)Nc4ccccc43)cc2F)cc1 (stereo not shown) [Example 7]
inhibition at 1 µM (DPP IV): 3.55%
inhibition at 10 µM (DPP IV): 7.75%
inhibition at 1 µM (TNF-α; 1 μM): 0.93%
inhibition at 10 µM (TNF-α; 10 μM): 6.43%

CCN1C(=O)OCC1Cc1ccc(Oc2ccc(CC3C(=O)Nc4ccccc43)cc2C(F)(F)F)cc1 (stereo not shown) [Example 65]
inhibition at 1 µM (TNF-α; 1 μM): 4.6%
inhibition at 10 µM (TNF-α; 10 μM): 1.67%

CN1C(=O)OCC1Cc1ccc(Oc2ccc(CC3C(=O)Nc4ccccc43)cc2)cc1 (stereo not shown) [Example 64]
inhibition at 1 µM (TNF-α; 1 μM): 9.43%
inhibition at 10 µM (TNF-α; 10 μM): 15.6%
inhibition at 1 µM (IL-1β; 1 μM, LPS 100 ng/mL, 20 hours): 8.77%
inhibition at 10 µM (IL-1β; LPS 100 ng/mL, 20 hours): 25.9%

CCN1C(=O)OCC1Cc1ccc(Oc2ccc(/C=C3/SC(=S)N(CC(=O)O)C3=O)cc2)cc1 (stereo not shown) [Example 37]
% Reduction Cholesterol [1]: NR
% Reduction Triglycerides [1]: NR
inhibition in vivo at 50 mg/kg ([1]; read-out: % Reduction Glucose): 22.5%

CN1CC(Cc2ccc(Oc3ccc(/C=C4/SC(=S)N(CC(=O)O)C4=O)cc3)cc2)OC1=O (stereo not shown) [Example 32, 3-methyl-5-(4-{4-[(E)-(3-aceticacid-4-oxo-2-thioxo-1,3-thiazolidin-5-ylidene)methyl]phenoxy}benzyl)-1,3-oxazolidin-2-one]
Stimulation Index (3T3-L1 cells): 0.89

CN1C(=O)OCC1Cc1ccc(Oc2ccc(/C=C3/SC(=S)N(CC(=O)O)C3=O)cc2Cl)cc1 (stereo not shown) [Example 41, [4-oxo-5-(3-chloro-4-{4-[(3-methyl-2-oxo-1,3-oxazolidin-4-yl)methyl]phenoxy}benzylidene)-2-thioxo-1,3-thiazolidin-3-yl]acetic acid]
% Reduction Cholesterol [1]: NR
% Reduction Triglycerides [1]: NR
inhibition in vivo at 50 mg/kg ([1]; read-out: % Reduction Glucose): 66.5%

CCN1C(=O)OCC1Cc1ccc(Oc2ccc(/C=C3\C(=O)Nc4ccccc43)cc2)cc1 (stereo not shown) [Example 5]
inhibition at 1 µM (TNF-α; 1 μM): 1.72%
inhibition at 10 µM (TNF-α; 10 μM): 9.77%

CN1C(=O)OCC1Cc1ccc(Oc2ccc(/C=C3/SC(=S)NC3=O)cc2)cc1 (stereo not shown) [Example 34, 3-methyl-4-(4-{4-[(4-oxo-2-thioxo-1,3-thiazolidin-5-ylidene)methyl]phenoxy}benzyl)-1,3-oxazolidin-2-one]
inhibition at 1 µM (DPP IV): 9.52%
inhibition at 10 µM (DPP IV): -0.7%
% Reduction Cholesterol [1]: NR
inhibition in vivo at 50 mg/kg ([1]; read-out: % Reduction Glucose): 50.9%
inhibition in vivo at 50 mg/kg [1, 3]: 73.4%
